Molecular target: T1, human mAChR M4 (Homo sapiens, UniProt P08173)
T1 construct: expressed in transfected cells; host or cells: CHO-K1 (American Type Culture Collection), stably expressing hM4 and Gqi5
T1 sequence (P08173 1-479): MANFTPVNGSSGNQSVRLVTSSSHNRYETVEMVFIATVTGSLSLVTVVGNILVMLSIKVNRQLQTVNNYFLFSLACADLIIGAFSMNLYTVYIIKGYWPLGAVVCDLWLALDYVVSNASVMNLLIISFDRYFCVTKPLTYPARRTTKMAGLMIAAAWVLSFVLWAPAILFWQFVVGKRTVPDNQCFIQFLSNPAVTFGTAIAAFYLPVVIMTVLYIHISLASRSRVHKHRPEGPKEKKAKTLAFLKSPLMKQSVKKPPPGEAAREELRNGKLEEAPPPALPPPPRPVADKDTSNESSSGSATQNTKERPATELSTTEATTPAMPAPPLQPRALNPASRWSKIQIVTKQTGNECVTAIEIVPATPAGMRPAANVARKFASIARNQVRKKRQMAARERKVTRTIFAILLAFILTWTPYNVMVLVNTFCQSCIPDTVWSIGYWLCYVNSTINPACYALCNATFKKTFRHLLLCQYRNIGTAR
Assay: mAChR M4 cell-based functional assay: calcium mobilization (Fluo-4, FDSS), potentiation of EC20 acetylcholine response in hM4-Gqi5 CHO-K1 cells
Conditions: human M4; for Emax at 30 µM: CHO-K1, % ACh maximum at 30 μM; for EC50: potentiation of EC20 acetylcholine response, calcium mobilization
Outline: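 Readout is the fluorescence-ratio rise at 1 Hz on FDSS, with PAM activity taken as concentration-dependent enhancement of the EC20 acetylcholine response, fitted four-parameter for EC50/Emax. hM4-Gqi5 CHO-K1 cells carried Fluo-4 AM dye; test compounds (11 points, 1:3) preceded EC20 acetylcholine additions at 144 s and 230 s.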

| SMILES | Emax at 30 µM | EC50 |
| --- | --- | --- |
| Cc1cc(=O)n2nc(N3CCc4ncc(-c5cc(F)ncc5F)cc4C3)c(C)c(C)c2n1 [Compound 1-281, 7-(3-(2,5-difluoropyridin-4-yl)-7,8-dihydro-1,6-naphthyridin-6(5H)-yl)-2,8,9-trimethyl-4H-pyrimido[1,2-b]pyridazin-4-one] | 85% | 498 nM |
| COc1cnccc1-c1cnc2c(c1)CN(c1nn3c(=O)cc(C)nc3c(C)c1C)CC2 [Compound 1-282, 7-(3-(3-methoxypyridin-4-yl)-7,8-dihydro-1,6-naphthyridin-6(5H)-yl)-2,8,9-trimethyl-4H-pyrimido[1,2-b]pyridazin-4-one] | 90% | 481 nM |
| Cc1cc(F)c(F)c(-c2cnc3c(c2)CN(c2nn4c(=O)cc(C(F)F)nc4c(C)c2C)CC3)c1 [Compound 1-284, 7-(3-(2,3-difluoro-5-methylphenyl)-7,8-dihydro-1,6-naphthyridin-6(5H)-yl)-2-(difluoromethyl)-8,9-dimethyl-4H-pyrimido[1,2-b] pyridazin-4-one] | 77% | 1100 nM |
| Cc1cc(=O)n2nc(N3CCc4ncc(-c5cncnc5)cc4C3)c(C)cc2n1 [Compound 1-286, 2,8-dimethyl-7-(3-(pyrimidin-5-yl)-7,8-dihydro-1,6-naphthyridin-6(5H)-yl)-4H-pyrimido[1,2-b]pyridazin-4-one] | 68% | 8720 nM |
| Cc1cc(=O)n2nc(N3CCc4ncc(-c5cnn6ccccc56)cc4C3)c(C)cc2n1 [Compound 1-288, 2,8-dimethyl-7-(3-(pyrazolo[1,5-a]pyridin-3-yl)-7,8-dihydro-1,6-naphthyridin-6(5H)-yl)-4H-pyrimido[1,2-b] pyridazin-4-one] | 84% | 311 nM |
| Cc1cc(=O)n2nc(N3CCc4ncc(-c5cnn(CC(F)(F)F)c5)cc4C3)c(C)cc2n1 [Compound 1-291, 2,8-dimethyl-7-(3-(1-(2,2,2-trifluoroethyl)-1H-pyrazol-4-yl)-7,8-dihydro-1,6-naphthyridin-6(5H)-yl)-4H-pyrimido[1,2-b]pyridazin-4-one] | 82% | 356 nM |
| Cc1ccc(-c2cnc3c(c2)CN(c2nn4c(=O)cc(C)nc4cc2C)CC3)cc1 [Compound 1-293, 2,8-dimethyl-7-(3-(p-tolyl)-7,8-dihydro-1,6-naphthyridin-6(5H)-yl)-4H-pyrimido[1,2-b]pyridazin-4-one] | 88% | 331 nM |
| Cc1cc(=O)n2nc(N3CCc4ncc(-c5cnn(C)c5C)cc4C3)c(C)cc2n1 [Compound 1-294, 7-(3-(1,5-dimethyl-1H-pyrazol-4-yl)-7,8-dihydro-1,6-naphthyridin-6(5H)-yl)-2,8-dimethyl-4H-pyrimido[1,2-b]pyridazin-4-one] | 99% | 245 nM |
| COc1ccncc1-c1cnc2c(c1)CN(c1nn3c(=O)cc(C)nc3cc1C)CC2 [Compound 1-295, 7-(3-(4-methoxypyridin-3-yl)-7,8-dihydro-1,6-naphthyridin-6(5H)-yl)-2,8-dimethyl-4H-pyrimido[1,2-b]pyridazin-4-one] | 96% | 89 nM |
| Cc1cc2nccn2cc1-c1cnc2c(c1)CN(c1nn3c(=O)ccnc3c(C)c1C)CC2 [Compound 1-296, 8,9-dimethyl-7-(3-(7-methylimidazo[1,2-a]pyridin-6-yl)-7,8-dihydro-1,6-naphthyridin-6(5H)-yl)-4H-pyrimido[1,2-b]pyridazin-4-one] | 62% | 563 nM |
| COc1ccsc1-c1cnc2c(c1)CN(c1nn3c(=O)cc(C)nc3cc1C)CC2 [Compound 1-298, 7-(3-(3-methoxythiophen-2-yl)-7,8-dihydro-1,6-naphthyridin-6(5H)-yl)-2,8-dimethyl-4H-pyrimido[1,2-b]pyridazin-4-one] | 85% | 83 nM |
| Cc1cc(=O)n2nc(N3CCc4ncc(-c5ccc(CO)s5)cc4C3)c(C)cc2n1 [Compound 1-299, 7-(3-(5-(hydroxymethyl)thiophen-2-yl)-7,8-dihydro-1,6-naphthyridin-6(5H)-yl)-2,8-dimethyl-4H-pyrimido[1,2-b]pyridazin-4-one] | 93% | 41 nM |
| Cc1cc(=O)n2nc(N3CCc4ncc(-c5ccsc5)cc4C3)c(C)cc2n1 [Compound 1-300, 2,8-dimethyl-7-(3-(thiophen-3-yl)-7,8-dihydro-1,6-naphthyridin-6(5H)-yl)-4H-pyrimido[1,2-b]pyridazin-4-one] | 87% | 122 nM |
| Cc1cc(=O)n2nc(N3CCc4ncc(-c5ccco5)cc4C3)c(C)cc2n1 [Compound 1-301, 7-(3-(furan-2-yl)-7,8-dihydro-1,6-naphthyridin-6(5H)-yl)-2,8-dimethyl-4H-pyrimido[1,2-b]pyridazin-4-one] | 91% | 111 nM |
| Cc1cc(=O)n2nc(N3CCc4ncc(-c5ccc(C)o5)cc4C3)c(C)cc2n1 [Compound 1-302, 2,8-dimethyl-7-(3-(5-methylfuran-2-yl)-7,8-dihydro-1,6-naphthyridin-6(5H)-yl)-4H-pyrimido[1,2-b] pyridazin-4-one] | 85% | 188 nM |
| Cc1cc(=O)n2nc(N3CCc4ncc(-c5ccc(C)o5)cc4C3)c(C)c(C)c2n1 [Compound 1-305, 2,8,9-trimethyl-7-(3-(5-methylfuran-2-yl)-7,8-dihydro-1,6-naphthyridin-6(5H)-yl)-4H-pyrimido[1,2-b] pyridazin-4-one] | 88% | 315 nM |
| Cc1c(N2CCc3ncc(-c4cccc(F)c4)cc3C2)nn2c(=O)cc(C(F)F)nc2c1C [Compound 1-306, 2-(difluoromethyl)-7-(3-(3-fluorophenyl)-7,8-dihydro-1,6-naphthyridin-6(5H)-yl)-8,9-dimethyl-4H-pyrimido[1,2-b]pyridazin-4-one] | 89% | 451 nM |
| Cc1cnccc1-c1cnc2c(c1)CN(c1nn3c(=O)cc(C(F)F)nc3c(C)c1C)CC2 [Compound 1-307, 2-(difluoromethyl)-8,9-dimethyl-7-(3-(3-methylpyridin-4-yl)-7,8-dihydro-1,6-naphthyridin-6(5H)-yl)-4H-pyrimido[1,2-b]pyridazin-4-one] | 88% | 69 nM |

More lines, in order of falling EC50, values ahead:

| Emax at 30 µM | EC50 | SMILES |
| --- | --- | --- |
| 70% | 4550 nM | Cc1cncc(-c2cnc3c(c2)CN(c2nn4c(=O)cc(C)nc4cc2C)CC3)c1 [Compound 1-289, 2,8-dimethyl-7-(3-(5-methylpyridin-3-yl)-7,8-dihydro-1,6-naphthyridin-6(5H)-yl)-4H-pyrimido[1,2-b] pyridazin-4-one] |
| 85% | 1210 nM | Cc1cc(=O)n2nc(N3CCc4ncc(-c5cnn(C6COC6)c5)cc4C3)c(C)cc2n1 [Compound 1-287, 2,8-dimethyl-7-(3-(1-(oxetan-3-yl)-1H-pyrazol-4-yl)-7,8-dihydro-1,6-naphthyridin-6(5H)-yl)-4H-pyrimido[1,2-b]pyridazin-4-one] |
| 79% | 900 nM | Cc1c(N2CCc3ncc(-c4ccc(F)c(F)c4)cc3C2)nn2c(=O)cc(C(F)F)nc2c1C [Compound 1-283, 2-(difluoromethyl)-7-(3-(3,4-difluorophenyl)-7,8-dihydro-1,6-naphthyridin-6(5H)-yl)-8,9-dimethyl-4H-pyrimido[1,2-b]pyridazin-4-one] |
| 89% | 552 nM | COc1cc(C)c(-c2cnc3c(c2)CN(c2nn4c(=O)cc(C)nc4cc2C)CC3)cn1 [Compound 1-285, 7-(3-(6-methoxy-4-methylpyridin-3-yl)-7,8-dihydro-1,6-naphthyridin-6(5H)-yl)-2,8-dimethyl-4H-pyrimido[1,2-b]pyridazin-4-one] |
| 92% | 477 nM | Cc1ccc(-c2cnc3c(c2)CN(c2nn4c(=O)cc(C)nc4cc2C)CC3)c(C)c1 [Compound 1-292, 7-(3-(2,4-dimethylphenyl)-7,8-dihydro-1,6-naphthyridin-6(5H)-yl)-2,8-dimethyl-4H-pyrimido[1,2-b]pyridazin-4-one] |
| 90% | 375 nM | Cc1cc(=O)n2nc(N3CCc4ncc(-c5cccnc5)cc4C3)c(C)cc2n1 [Compound 1-290, 2,8-dimethyl-7-(3-(pyridin-3-yl)-7,8-dihydro-1,6-naphthyridin-6(5H)-yl)-4H-pyrimido[1,2-b]pyridazin-4-one] |
| 96% | 192 nM | COc1ccsc1-c1cnc2c(c1)CN(c1nn3c(=O)cc(C)nc3c(C)c1C)CC2 [Compound 1-303, 7-(3-(3-methoxythiophen-2-yl)-7,8-dihydro-1,6-naphthyridin-6(5H)-yl)-2,8,9-trimethyl-4H-pyrimido[1,2-b]pyridazin-4-one] |
| 89% | 169 nM | Cc1cc(=O)n2nc(N3CCc4ncc(-c5ccsc5)cc4C3)c(C)c(C)c2n1 [Compound 1-304, 2,8,9-trimethyl-7-(3-(thiophen-3-yl)-7,8-dihydro-1,6-naphthyridin-6(5H)-yl)-4H-pyrimido[1,2-b]pyridazin-4-one] |
| 87% | 76 nM | Cc1cc(=O)n2nc(N3CCc4ncc(-c5cccs5)cc4C3)c(C)cc2n1 [Compound 1-297, 2,8-dimethyl-7-(3-(thiophen-2-yl)-7,8-dihydro-1,6-naphthyridin-6(5H)-yl)-4H-pyrimido[1,2-b]pyridazin-4-one] |

Reference: patent US20250101041A1, “POSITIVE ALLOSTERIC MODULATORS OF THE MUSCARINIC ACETYLCHOLINE RECEPTOR M4” (Vanderbilt University, priority 2022, published 2025)
